The test system of one experiment is MCC13 cells (VN-MCC). The experiment can be described thus: qHTS cell viability (CellTiter-Glo, 72 h; primary and follow-up small molecule screen). The experiment is classed as cell-based, human.
For another experiment, the system named is MCC26 cells (VN-MCC). The description is as above. The experiment is classed as cell-based, human.
For the next experiment, the system named is UISO cells (VN-MCC). Described as above. The experiment is classed as cell-based, human.
The subject of the next experiment is WAGA cells (VP-MCC). The experiment is described as above. The experiment is classed as cell-based, human.
The test system of the next experiment is MKL-1 cells (VP-MCC). The experiment is described as above. It counts as cell-based, human.
A further experiment has as its system MKL-2 cells (VP-MCC). The experiment is described as above. It counts as cell-based, human.
The subject of the next experiment is HACAT cells. The experiment can be described thus: qHTS cell viability (CellTiter-Glo, 72 h; primary screen), control cell line. The experiment is classed as cell-based, human. In general terms: In qHTS, concentration-response curves come from the screen itself.
Another experiment deals with HEK293T cells. Described as above. It counts as cell-based, human.
The test system of another experiment is NIH-3T3 cells. Described as above. The experiment is classed as cell-based, mouse.
Another experiment deals with CRL-7250 cells. Described as above. The experiment is classed as cell-based.
The test system of experiment [1] is MCC cell lines (WAGA, MKL-1, MKL-2, MCC13, MCC26, UISO). The experiment can be described thus: qHTS cell viability, all six MCC cell lines as a group (mean AUC, MCC.avg). The experiment is classed as cell-based, human. Conditions: NPC library.
The subject of experiment [2] is VP-MCC cell lines (WAGA, MKL-1, MKL-2). The experiment can be described thus: qHTS cell viability, VP-MCC cell lines as a group (mean AUC, VP.MCC.avg). As to conditions: for VP-MCC_Avg_AUC: mean AUC of VP-MCC cell lines. It counts as cell-based, human.
Experiment [3] has as its system VN-MCC cell lines (MCC13, MCC26, UISO). The experiment can be described thus: qHTS cell viability, VN-MCC cell lines as a group (mean AUC, VN.MCC.avg). It counts as cell-based, human. As to conditions: for VN-MCC_Avg_AUC: mean AUC of VN-MCC cell lines.
The test system of experiment [4] is control cell lines (HACAT, HEK293T, CRL-7250, NIH-3T3). The experiment can be described thus: qHTS cell viability, control cell lines as a group (mean AUC, Control.avg). It counts as cell-based. As to conditions: NPC library; mean AUC of control cell lines.
Experiment [5] concerns six MCC cell lines and four control cell lines. The experiment can be described thus: qHTS cell viability, all 10 cell lines screened. It counts as cell-based. As to conditions: NPC library.
Where [6] appears, read: NPC library, 8-point DRC, area under dose-response curve.
Where [7] appears, read: NPC library, qHTS dose-response AUC, MCC13.
The mark [8] stands for this setting: NPC library, qHTS dose-response AUC, UISO.
Setting [9] is: NPC library, qHTS dose-response AUC, WAGA.
Setting [10] is: NPC library, qHTS dose-response AUC, MKL1.
[11] abbreviates: NPC library, qHTS dose-response AUC, MKL2.
Setting [12] is: NPC library, 8-point DRC, control cell line.
Setting [13] is: NPC library, qHTS dose-response AUC, HACAT control.
The mark [14] stands for this setting: NPC library, qHTS dose-response AUC, NIH3T3 control.
Setting [15] is: NPC library, qHTS dose-response AUC, CRL7250 control.
Where [16] appears, read: NPC library; qHTS dose-response AUC, MCC26.
Where [17] appears, read: NPC library; qHTS dose-response AUC, HEK293T control.
[18] abbreviates: NPC library, therapeutic window: Control avg AUC minus VP-MCC avg AUC.
Where [19] appears, read: NPC library, therapeutic window: Control avg AUC minus VN-MCC avg AUC.
Where [20] appears, read: therapeutic window: Control avg AUC minus MCC avg AUC.

Each structure is given as a SMILES string. Where a name gives a salt, the structure may show the parent alone.

As to `CSc1ccc2c(c1)N(CCC1CCCCN1C)c1ccccc1S2` (stereo not drawn) [Thioridazine], the MCC13_AUC in the experiment on MCC13 cells (VN-MCC) (setting [6]) came out at 405.187; with MCC13 cells (VN-MCC) (setting [7]), 405.187; with MCC13 cells (VN-MCC) (area under the dose-response curve, MCC13 cells, AUC<450 = reduced viability), 405.187. Besides, the MCC26_AUC in the experiment on MCC26 cells (VN-MCC) (setting [6]) is 403.828; with MCC26 cells (VN-MCC) (NPC library, qHTS dose-response AUC, MCC26) it was 403.828; in the experiment with MCC26 cells (VN-MCC) (area under the dose-response curve, MCC26 cells; AUC<450 = reduced viability) it was 403.828. Moreover, the UISO_AUC with UISO cells (VN-MCC) (setting [6]) came to 400.342; in the experiment with UISO cells (VN-MCC) (setting [8]), 400.342; in the experiment with UISO cells (VN-MCC) (area under the dose-response curve, UISO cells, AUC<450 = reduced viability) it was 400.342. Besides, the WAGA_AUC was found to be 416.169 in the experiment on WAGA cells (VP-MCC) (setting [6]); 416.169 with WAGA cells (VP-MCC) (setting [9]); 416.169 in the experiment on WAGA cells (VP-MCC) (area under the dose-response curve, WAGA cells, AUC<450 = reduced viability). In addition, the MKL1_AUC with MKL-1 cells (VP-MCC) (setting [6]) was determined as 412.834; with MKL-1 cells (VP-MCC) (setting [10]) it was 412.834; in the experiment on MKL-1 cells (VP-MCC) (area under the dose-response curve, MKL-1 cells, AUC<450 = reduced viability) it was 412.834. The MKL2_AUC in the experiment on MKL-2 cells (VP-MCC) (setting [6]) was determined as 356.973; in the experiment with MKL-2 cells (VP-MCC) (setting [11]) it was 356.974; in the experiment with MKL-2 cells (VP-MCC) (area under the dose-response curve, MKL-2 cells, AUC<450 = reduced viability) it was 356.974. Also, the HACAT_AUC in the experiment with HACAT cells (setting [12]) turned out to be 453.674; with HACAT cells (setting [13]), 453.674; with HACAT cells (area under the dose-response curve, HACAT control cells, AUC<450 = reduced viability), 453.674. For the same compound, the HEK293T_AUC is 452.051 in the experiment on HEK293T cells (setting [12]); 452.051 with HEK293T cells (NPC library, qHTS dose-response AUC, HEK293T control); 452.051 in the experiment with HEK293T cells (area under the dose-response curve, HEK293T control cells; AUC<450 = reduced viability). Also, the NIH3T3_AUC in the experiment with NIH-3T3 cells (setting [12]) was found to be 457.937; in the experiment on NIH-3T3 cells (setting [14]) it was 457.938; with NIH-3T3 cells (area under the dose-response curve, NIH3T3 control cells, AUC<450 = reduced viability), 457.938. The CRL7250_AUC is 474.374 in the experiment with CRL-7250 cells (setting [12]); 474.374 in the experiment on CRL-7250 cells (setting [15]); 474.374 in the experiment with CRL-7250 cells (area under the dose-response curve, CRL7250 control cells, AUC<450 = reduced viability). The MCC_Avg_AUC in [1] (mean AUC of all 6 MCC cell lines) and in experiment [1] (mean AUC of six MCC cell lines) was 399.222 each time. The Control-VP-MCC in experiment [2] (Control AUC minus VP-MCC AUC) turned out to be 64.1836; in experiment [2] (NPC library, Control AUC minus VP-MCC AUC (therapeutic window)), 64.1836. The Control-VN-MCC in experiment [3] (Control AUC minus VN-MCC AUC) is on record as 56.3901; in [3] (NPC library, Control AUC minus VN-MCC AUC (therapeutic window)) it was 56.3901. Moreover, the VN-MCC_Avg_AUC in [3] (NPC library) came to 403.119. Besides, in experiment [4], the Control_Avg_AUC came out at 459.509. The same compound came in with a Control-MCC in experiment [5] (Control AUC minus MCC AUC (therapeutic window)) of 60.2868.
Compound `Cc1ccsc1C(=CCCN1CCC[C@@H](C(=O)O)C1)c1sccc1C` [Tiagabine hydrochloride] returned an MCC13_AUC in the experiment on MCC13 cells (VN-MCC) (setting [7]) of 504.961. The compound also gave an MCC26_AUC in the experiment on MCC26 cells (VN-MCC) (setting [16]) of 535.626. Also, the UISO_AUC in the experiment with UISO cells (VN-MCC) (setting [8]) is 537.732. This compound also yielded a WAGA_AUC in the experiment with WAGA cells (VP-MCC) (setting [9]) of 356.213. In the experiment with MKL-1 cells (VP-MCC) (setting [10]), this compound yielded an MKL1_AUC of 342.483. Also, the MKL2_AUC with MKL-2 cells (VP-MCC) (setting [11]) is 263.998. The HACAT_AUC in the experiment with HACAT cells (setting [13]) is on record as 471.067. Besides, the HEK293T_AUC with HEK293T cells (setting [17]) came to 447.539. The NIH3T3_AUC in the experiment with NIH-3T3 cells (setting [14]) is on record as 484.889. Further, in the experiment on CRL-7250 cells (setting [15]), the CRL7250_AUC was 426.76. Moreover, the MCC_Avg_AUC in experiment [1] (mean AUC of six MCC cell lines) was determined as 423.502. Further, the VP-MCC_Avg_AUC in experiment [2] (NPC library) is recorded as 320.898. This compound gave a Control-VP-MCC in experiment [2] (setting [18]) of 136.666. This compound also displayed a VN-MCC_Avg_AUC in experiment [3] (NPC library) of 526.106. Also, in [3] (setting [19]), the Control-VN-MCC was -68.5423. Further, the Control_Avg_AUC in experiment [4] stood at 457.564. Further, in experiment [5] (setting [20]), the Control-MCC is given as 34.0617.
`Clc1ccc(C(Cn2ccnc2)OCc2ccsc2Cl)c(Cl)c1` (stereo not drawn) [Tioconazole] showed an MCC13_AUC in the experiment on MCC13 cells (VN-MCC) (setting [7]) of 438.775. Moreover, the MCC26_AUC with MCC26 cells (VN-MCC) (setting [16]) stood at 501.8. Moreover, the UISO_AUC in the experiment with UISO cells (VN-MCC) (setting [8]) is given as 437.585. Further, the WAGA_AUC in the experiment on WAGA cells (VP-MCC) (setting [9]) is reported as 248.268. This compound also showed an MKL1_AUC in the experiment with MKL-1 cells (VP-MCC) (setting [10]) of 310.311. The MKL2_AUC with MKL-2 cells (VP-MCC) (setting [11]) is recorded as 282.208. The HACAT_AUC in the experiment with HACAT cells (setting [13]) was found to be 488.14. This compound came in with an HEK293T_AUC in the experiment with HEK293T cells (setting [17]) of 456.797. In the experiment with NIH-3T3 cells (setting [14]), this compound gave an NIH3T3_AUC of 445.245. In the experiment with CRL-7250 cells (setting [15]), this compound displayed a CRL7250_AUC of 480.608. This compound gave an MCC_Avg_AUC in [1] (mean AUC of six MCC cell lines) of 369.824. The compound further had a VP-MCC_Avg_AUC in experiment [2] (NPC library) of 280.262. Moreover, in [2] (setting [18]), the Control-VP-MCC was determined as 187.435. This compound gave a VN-MCC_Avg_AUC in experiment [3] (NPC library) of 459.387. Moreover, the Control-VN-MCC in experiment [3] (setting [19]) is recorded as 8.311. In experiment [4], the Control_Avg_AUC is listed as 467.697. Further, the Control-MCC in [5] (setting [20]) is 97.8731.
In the experiment on MCC13 cells (VN-MCC) (setting [7]), `c1ccc(CC2=NCCN2)cc1` [Tolazoline hydrochloride] showed an MCC13_AUC of 452.083. In the experiment with MCC26 cells (VN-MCC) (setting [16]), the MCC26_AUC is reported as 395.361. Also, in the experiment with UISO cells (VN-MCC) (setting [8]), the UISO_AUC is given as 451.588. In the experiment with WAGA cells (VP-MCC) (setting [9]), this compound displayed a WAGA_AUC of 433.154. The MKL1_AUC in the experiment with MKL-1 cells (VP-MCC) (setting [10]) turned out to be 395.582. Further, in the experiment with MKL-2 cells (VP-MCC) (setting [11]), the MKL2_AUC turned out to be 397.927. The HACAT_AUC with HACAT cells (setting [13]) was determined as 471.166. Besides, the HEK293T_AUC in the experiment on HEK293T cells (setting [17]) is recorded as 454.352. The NIH3T3_AUC in the experiment with NIH-3T3 cells (setting [14]) came to 440.048. Besides, in the experiment with CRL-7250 cells (setting [15]), the CRL7250_AUC worked out at 475.841. In experiment [1] (mean AUC of six MCC cell lines), this compound returned an MCC_Avg_AUC of 420.949. This compound also yielded a VP-MCC_Avg_AUC in [2] (NPC library) of 408.888. In experiment [2] (setting [18]), the Control-VP-MCC is reported as 51.4641. For the same compound, the VN-MCC_Avg_AUC in [3] (NPC library) is 433.01. For the same compound, the Control-VN-MCC in [3] (setting [19]) is 27.3412. In experiment [4], this compound had a Control_Avg_AUC of 460.352. Also, the Control-MCC in experiment [5] (setting [20]) is reported as 39.4026.

Values taken from article PMC11822212, “High-throughput screening identifies Aurora kinase B as a critical therapeutic target for Merkel cell carcinoma” (Nature Communications, 2025).
